Read-outs that look alike come from different tables or passages of the source.
Tested on: HCV 1b-377-neo replicon cells
Assay: HCV replicon assay, HCV 1b-377-neo replicon cells (1b FRET)
Type: cell-based, Hepatitis C virus genotype 1b
Conditions: HCV 1b-377-neo replicon cells, HCV 1b genotype, read-out: EC50 range against HCV 1b (Table 2, Range)
Experimental: An HCV Replion assay was utilized in the present disclosure, and was prepared, conducted and validated as described in commonly owned PCT/US2006/022197 and in O'Boyle et. al. Antimicrob Agents Chemother. 2005 April; 49(4):1346-53.
HCV 1b-377-neo replicon cells were used to test the currently described compound series as well as cells resistant to compound A due to a Y2065H mutation in NS5A (described in application PCT/US2006/022197). The compounds tested were determined to have more than 10-fold less inhibitory activity on cells resistant to compound A than wild-type cells indicating a related mechanism of action between the two compound series. Thus, the compounds of the present disclosure can be effective to inhibit the function of the HCV NS5A protein and are understood to be as effective in combinations as previously described in application PCT/US2006/022197 and commonly owned WO/04014852. Further, the compounds of the present disclosure can be effective against the HCV 1b genotype. It should also be understood that the compounds of the present disclosure can inhibit multiple genotypes of HCV. […] In one embodiment compounds of the present disclosure are active against the 1a, 1b, 2a, 2b, 3a, 4a, and 5a genotypes.

| Compound | EC50 (Hepatitis C virus) [nM] | EC50 [nM] |
| --- | --- | --- |
| CCN(CC)C(C)C(=O)N1CCC[C@H]1c1nc(C(F)(F)F)c(-c2ccc(-c3ncc(-c4cnc([C@@H]5CCCN5C(=O)[C@@H](C)N(CC)CC)[nH]4)cn3)cc2)[nH]1 (stereo in doubt) [Example J51, (2R)-1-((2S)-2-(5-(4-(5-(2-((2S)-1-((2R)-2-(diethylamino)propanoyl)-2-pyrrolidinyl)-1H-imidazol-5-yl)-2-pyrimidinyl)phenyl)-4-(trifluoromethyl)-1H-imidazol-2-yl)-1-pyrrolidinyl)-N,N-diethyl-1-oxo-2-propanamine] | 1 to 99 | – |
| CC(=O)N1[C@@H](C)CC[C@H]1c1ncc(-c2ccc(-c3ccc(-c4cnc([C@@H]5CC[C@H](C)N5C(C)=O)[nH]4)cc3)cc2)[nH]1 (stereo in doubt) [Example M162, 2-((2S,5S)-1-acetyl-5-methyl-2-pyrrolidinyl)-4-(4′-(2-((2S,5S)-1-acetyl-5-methyl-2-pyrrolidinyl)-1H-imidazol-5-yl)-4-biphenylyl)-1H-imidazole] | 1 to 99 | – |
| CCN(CC)[C@@H](C(=O)N1CCC[C@H]1c1ncc(-c2ccc(-c3ccc(-c4cnc([C@@H]5CCCN5C(=O)CC(Cc5ccccc5F)NC(=O)OC)[nH]4)cc3)cc2)[nH]1)c1ccccc1 (stereo in doubt) [cj-59, methyl ((1S)-3-((2S)-2-(5-(4′-(2-((2S)-1-((2R)-2-(diethylamino)-2-phenylacetyl)-2-pyrrolidinyl)-1H-imidazol-5-yl)-4-biphenylyl)-1H-imidazol-2-yl)-1-pyrrolidinyl)-1-(2-fluorobenzyl)-3-oxopropyl)carbamate] | 0.001 to 0.999 | – |
| C[C@H]1OC(=O)NC1C(=O)N1CCC[C@H]1c1ncc(-c2ccc(-c3ccc(-c4cnc([C@@H]5CCCN5C(=O)C5NC(=O)O[C@@H]5C)[nH]4)cc3)cc2)[nH]1 (stereo in doubt) [cj-133, (4S,5R,4′S,5′R)-4,4′-(4,4′-biphenyldiylbis(1H-imidazole-5,2-diyl(2S)-2,1-pyrrolidinediylcarbonyl))bis(5-methyl-1,3-oxazolidin-2-one)] | 1 to 99 | – |
| COC(=O)NC1CCC(C(=O)N2CCC[C@H]2c2ncc(-c3ccc(-c4ccc(-c5cnc([C@@H]6CCCN6C(=O)C6CCC(NC(=O)OC)C6)[nH]5)cc4)cc3)[nH]2)C1 (stereo in doubt) [cj-149, dimethyl (4,4′-biphenyldiylbis(1H-imidazole-5,2-diyl(2S)-2,1-pyrrolidinediylcarbonyl(1R,3S)-3,1-cyclopentanediyl))biscarbamate] | 1 to 99 | – |
| CN(C)[C@@H](C(=O)N1CCC[C@H]1c1ncc(-c2ccc(-c3ccc(-c4cnc([C@@H]5CCCN5C(=O)[C@@H](c5ccccc5)N(C)C)[nH]4)cc3)cc2)[nH]1)c1ccccc1 [Example 1, (1R,1′R)-2, 2′-(4,4′-biphenyldiylbis (1H-imidazole-5,2-diyl(2S)-2,1-pyrrolidinediyl))bis(N,N-dimethyl-2-oxo-1-phenylethanamine)] | 0.001 to 0.999 | – |
| O=C([C@H](O)c1ccccc1)N1CCC[C@H]1c1ncc(-c2ccc(-c3ccc(-c4cnc([C@@H]5CCCN5C(=O)[C@H](O)c5ccccc5)[nH]4)cc3)cc2)[nH]1 [Example 2, (1R,1′R)-2,2′-(4,4′-biphenyldiylbis(1H-imidazole-5,2-diyl(2S)-2,1-pyrrolidinediyl))bis(2-oxo-1-phenylethanol)] | 0.001 to 0.999 | – |
| C[C@@](O)(C(=O)N1CCC[C@H]1c1ncc(-c2ccc(-c3ccc(-c4cnc([C@@H]5CCCN5C(=O)[C@@](C)(O)c5ccccc5)[nH]4)cc3)cc2)[nH]1)c1ccccc1 [Example 3, (2S,2′S)-1,1′-(4,4′-biphenyldiylbis(1H-imidazole-5,2-diyl(2)-2,1-pyrrolidinediyl))bis(1-oxo-2-phenyl-2-propanol)] | – | 0.001 to 0.999 |
| COC(=O)N[C@@H](C(=O)N1CCC[C@H]1c1ncc(-c2ccc(-c3ccc(-c4cnc([C@@H]5CCCN5C(=O)[C@H](NC(=O)OC)c5ccccc5)[nH]4)cc3)cc2)[nH]1)c1ccccc1 [Example 4, dimethyl (4,4′-biphenyldiylbis(1H-imidazole-5,2-diyl(2S)-2,1-pyrrolidinediyl((1R)-2-oxo-1-phenyl-2,1-ethanediyl)))biscarbamate] | 0.001 to 0.999 | – |
| CN(C)[C@H](C(=O)N1CCC[C@H]1c1ncc(-c2ccc(-c3ccc(-c4cnc([C@@H]5CCCN5C(=O)[C@H](c5ccccc5)N(C)C)[nH]4)cc3)cc2)[nH]1)c1ccccc1 [Example 5, (1S,1′S)-2,2′-(4,4′-biphenyldiylbis(1H-imidazole-5,2-diyl(2S)-2,1-pyrrolidinediyl))bis(N,N-dimethyl-2-oxo-1-phenylethanamine)] | 1 to 99 | – |
| O=C(c1ccccc1)N1CCC[C@H]1c1ncc(-c2ccc(-c3ccc(-c4cnc([C@@H]5CCCN5C(=O)c5ccccc5)[nH]4)cc3)cc2)[nH]1 [Example 6, 5,5′-(4,4′-biphenyldiyl)bis(2-((2S)-1-benzoyl-2-pyrrolidinyl)-1H-imidazole)] | 1 to 99 | – |
| O=C(Cc1ccccc1)N1CCC[C@H]1c1ncc(-c2ccc(-c3ccc(-c4cnc([C@@H]5CCCN5C(=O)Cc5ccccc5)[nH]4)cc3)cc2)[nH]1 [Example 7, 5,5′-(4,4′-biphenyldiyl)bis(2-((2)S-1-(phenylacetyl)-2-pyrrolidinyl)-1H-imidazole)] | – | 0.001 to 0.999 |
| CO[C@@H](C(=O)N1CCC[C@H]1c1ncc(-c2ccc(-c3ccc(-c4cnc([C@@H]5CCCN5C(=O)[C@H](OC)c5ccccc5)[nH]4)cc3)cc2)[nH]1)c1ccccc1 [Example 8, 5,5′-(4,4′-biphenyldiyl)bis(2-((2S)-1-((2R)-2-methoxy-2-phenylacetyl)-2-pyrrolidinyl)-1H-imidazole)] | 0.001 to 0.999 | – |
| O=C([C@H](O)Cc1ccccc1)N1CCC[C@H]1c1ncc(-c2ccc(-c3ccc(-c4cnc([C@@H]5CCCN5C(=O)[C@H](O)Cc5ccccc5)[nH]4)cc3)cc2)[nH]1 [Example 9, (2R,2′R)-1,1′-(4,4′-biphenyldiylbis(1H-imidazole-5,2-diyl(2S)-2,1-pyrrolidindiyl))bis(1-oxo-3-phenyl-2-propanol)] | 1 to 99 | – |
| CCC(=O)N1CCC[C@H]1c1ncc(-c2ccc(-c3ccc(-c4cnc([C@@H]5CCCN5C(=O)CC)[nH]4)cc3)cc2)[nH]1 [Example 10, 5,5′-(4,4′-biphenyldiyl)bis(2-((2S)-1-propionyl-2-pyrrolidinyl)-1H-imidazole)] | 1 to 99 | – |
| O=C(C1CC1)N1CCC[C@H]1c1ncc(-c2ccc(-c3ccc(-c4cnc([C@@H]5CCCN5C(=O)C5CC5)[nH]4)cc3)cc2)[nH]1 [Example 11, 5,5′-(4,4′-biphenyldiyl)bis(2-((2S)-1-(cyclopropylcarbonyl)-2-pyrrolidinyl)-1H-imidazole)] | 1 to 99 | – |
| O=C(CC1CC1)N1CCC[C@H]1c1ncc(-c2ccc(-c3ccc(-c4cnc([C@@H]5CCCN5C(=O)CC5CC5)[nH]4)cc3)cc2)[nH]1 [Example 12, 5,5′-(4,4′-biphenyldiyl)bis(2-((2S)-1-(cyclopropylacetyl)-2-pyrrolidinyl)-1H-imidazole)] | 1 to 99 | – |
| O=C([C@H]1CCCO1)N1CCC[C@H]1c1ncc(-c2ccc(-c3ccc(-c4cnc([C@@H]5CCCN5C(=O)[C@H]5CCCO5)[nH]4)cc3)cc2)[nH]1 [Example 13, 5,5′-(4,4′-biphenyldiyl)bis(2-((2S)-1-((2R)-tetrahydro-2-furanylcarbonyl)-2-pyrrolidinyl)-1H-imidazole)] | 1 to 99 | – |
| CN(C)CC(=O)N1CCC[C@H]1c1ncc(-c2ccc(-c3ccc(-c4cnc([C@@H]5CCCN5C(=O)CN(C)C)[nH]4)cc3)cc2)[nH]1 [Example 14, 2,2′-(4,4′-biphenyldiylbis(1H-imidazole-5,2-diyl(2S)-2,1-pyrrolidinediyl))bis(N,N-dimethyl-2-oxoethanamine)] | 100 to 999 | – |
| C[C@@H](O)C(=O)N1CCC[C@H]1c1ncc(-c2ccc(-c3ccc(-c4cnc([C@@H]5CCCN5C(=O)[C@@H](C)O)[nH]4)cc3)cc2)[nH]1 [Example 15, (2R,2′R)-1,1′-(4,4′-biphesnyldiylbis(1H-imidazole-5,2-diyl(2S)-2,1-pyrrolidinediyl))bis(1-oxo-2-propanol)] | – | 1 to 99 |
| CC(C)[C@@H](O)C(=O)N1CCC[C@H]1c1ncc(-c2ccc(-c3ccc(-c4cnc([C@@H]5CCCN5C(=O)[C@H](O)C(C)C)[nH]4)cc3)cc2)[nH]1 [Example 16, (2R,2′R)-1,1′-(4,4′-biphenyldiylbis(1H-imidazole-5,2-diyl(2S)-2,1-pyrrolidinediyl))bis(3-methyl-1-oxo-2-butanol)] | 1 to 99 | – |
| O=C([C@@H](c1ccccc1)N1CCCC1)N1CCC[C@H]1c1ncc(-c2ccc(-c3ccc(-c4cnc([C@@H]5CCCN5C(=O)[C@@H](c5ccccc5)N5CCCC5)[nH]4)cc3)cc2)[nH]1 [Example 17, 5,5′-(4,4′-biphenyldiyl)bis(2-((2S)-1-((2R)-2-phenyl-2-(1-pyrrolidinyl)acetyl)-2-pyrrolidinyl)-1H-imidazole)] | 0.001 to 0.999 | – |
| O=C([C@@H](c1ccccc1)N1CCOCC1)N1CCC[C@H]1c1ncc(-c2ccc(-c3ccc(-c4cnc([C@@H]5CCCN5C(=O)[C@@H](c5ccccc5)N5CCOCC5)[nH]4)cc3)cc2)[nH]1 [Example 18, 4,4′-(4,4′-biphenyldiylbis(1H-imidazole-5,2-diyl(2S)-2,1-pyrrolidinediyl((1R)-2-oxo-1-phenyl-2,1-ethanediyl)))dimorpholine] | 0.001 to 0.999 | – |

Source: patent US8574563B2 (Bristol-Myers Squibb Company, priority 2006, dated 2013)
